Earlier results, collected in patent US20110151017A1, “OPHTHALMIC SOLUTIONS WITH IMPROVED DISINFECTION PROFILES” (priority 2009, published 2011).

Settings: aqueous solution, forming tetrahydroxyborate

Ka: 5.8e-10 mol/L
SMILES: OB(O)O [Boric acid]
